Test results as given in the supplement of paper PMC11208160.

assay: recombinant barcode read abundance after kanamycin selection (control-corrected) (log10(CPM+1)); higher = more efficient recombination; sequences stand for … in AGTGCAGAGAAAATCGGCCAGTTTTCTCTGCCTGCAGTCCGCATGCCGT…AGATTTATGCAGCGGACTGCCTTTCTCCCAAAGTGATAAACCGGACAGTATCATGGACCGGTTTTCCCGGTAATCCGTATTTGCAAGGTTGGTTTCACT; site = the 11-nt target
In short: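 Values are log10(CPM+1) from a pooled E. coli screen of targets paired with IS621 bridge RNA target-binding loops. Recombination efficiency here means counts per million of recombinant-junction barcodes, averaged and control-corrected. Plates were chloramphenicol/ampicillin LB agar for the control and chloramphenicol/ampicillin/kanamycin with 0.1 mM IPTG, two replicates each.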
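Also: IS621 recombinase and bridge RNA in Escherichia coli cells.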

Row | Sequence | recombinant barcode read abundance (log10)
1 | GAGGGCCCTTGGGTTCTAACCTGTTGCGG (site GAGGGCCCTCT) | 2.8
2 | GAGGGTACTTGGGTTCTAACCTGTTGCAT (site GAGAGTACTAT) | 1.16
3 | GAGGGTACTTGGGTTCTAACCTGTTGCAT (site GAGCGTACTAT) | 0.206
4 | GAGGGTACTTGGGTTCTAACCTGTTGCAT (site GAGGGTACTAT) | 2.69
5 | GAGGGTACTTGGGTTCTAACCTGTTGCAT (site GAGTGTACTAT) | 0.102
6 | GAGGGTCCTTGGGTTCTAACCTGTTGCGT (site GAGGGTCCTAA) | 0.194
7 | GAGGGTCCTTGGGTTCTAACCTGTTGCGT (site GAGGGTCCTAC) | 2.82
8 | GAGGGTCCTTGGGTTCTAACCTGTTGCGT (site GAGGGTCCTAG) | 1.86
9 | GAGGGTCCTTGGGTTCTAACCTGTTGCGT (site GAGGGTCCTAT) | 2.29
10 | GAGTACCCTTGGGTTCTAACCTGTTGCGT (site GAGAATCCTAC) | 0.107
11 | GAGTACCCTTGGGTTCTAACCTGTTGCGT (site GAGTACCCTAC) | 3.2
12 | GAGTAGCCTTGGGTTCTAACCTGTTGCGG (site GAGTAGCCTCC) | 2.59
13 | GAGTAGCCTTGGGTTCTAACCTGTTGCGG (site GAGTCGCCTCC) | 0.196
14 | GAGTAGCCTTGGGTTCTAACCTGTTGCGG (site GAGTGGCCTCC) | 0.3
15 | GAGTAGCCTTGGGTTCTAACCTGTTGCGG (site GAGTTGCCTCC) | 0.204
16 | GAGTGTACTTGGGTTCTAACCTGTTGCAT (site GAGAGTACTAT) | 0.208
17 | GAGTGTACTTGGGTTCTAACCTGTTGCAT (site GAGCGTACTAT) | 0.553
18 | GAGTGTACTTGGGTTCTAACCTGTTGCAT (site GAGGGTACTAT) | 0.029
19 | GAGTGTACTTGGGTTCTAACCTGTTGCAT (site GAGTGTACTAT) | 1.32
20 | GAGTGTTCTTGGGTTCTAACCTGTTGCTT (site GAGTGTTCTAA) | 0.277

Row | Sequence | recombinant barcode read abundance (log10)
21 | GAGTGTTCTTGGGTTCTAACCTGTTGCTT (site TGTACGACTCC) | 0.0677
22 | GATAACTCTTGGGTTCTAACCTGTTGCCT (site AATAACTCTAG) | 0.802
23 | GATAACTCTTGGGTTCTAACCTGTTGCCT (site CATAACTCTAG) | 0.329
24 | GATAACTCTTGGGTTCTAACCTGTTGCCT (site GATAACTCTAG) | 0.734
25 | GATAACTCTTGGGTTCTAACCTGTTGCCT (site TATAACTCTAG) | 0.315
26 | GATACTGCTTGGGTTCTAACCTGTTGCCT (site GAAACTGCTAG) | 0.0212
27 | GATACTGCTTGGGTTCTAACCTGTTGCCT (site GACACTGCTAG) | 0.434
28 | GATACTGCTTGGGTTCTAACCTGTTGCCT (site GAGACTGCTAG) | 0.0206
29 | GATACTGCTTGGGTTCTAACCTGTTGCCT (site GATACTGCTAG) | 0.504
30 | GATAGGACTTGGGTTCTAACCTGTTGCGT (site GATAGGACTAC) | 2.12
31 | GATAGGACTTGGGTTCTAACCTGTTGCGT (site TATAGGACTAC) | 2.03
32 | GATAGGGCTTGGGTTCTAACCTGTTGCGG (site GATAGGGCTCC) | 2.34
33 | GATAGGGCTTGGGTTCTAACCTGTTGCGG (site TATAGGGCTCG) | 0.362
34 | GATAGTGCTTGGGTTCTAACCTGTTGCCT (site GATAGTACTAG) | 0.0881
35 | GATAGTGCTTGGGTTCTAACCTGTTGCCT (site GATAGTCCTAG) | 0.0622
36 | GATAGTGCTTGGGTTCTAACCTGTTGCCT (site GATAGTGCTAG) | 0.536
37 | GATAGTGCTTGGGTTCTAACCTGTTGCCT (site GATAGTTCTAG) | 0.0158
38 | GATCAATCTTGGGTTCTAACCTGTTGCCT (site GAGCAAACTAG) | 0.0249
39 | GATCAATCTTGGGTTCTAACCTGTTGCCT (site GATCAATCTAG) | 0.332
40 | GATCGAGCTTGGGTTCTAACCTGTTGCGA (site GATCGAGCTTC) | 0.921

Row | Sequence | recombinant barcode read abundance (log10)
41 | GATCGAGCTTGGGTTCTAACCTGTTGCGA (site GATGGAGCTCC) | 0.428
42 | GATGGCCCTTGGGTTCTAACCTGTTGCTT (site GACGGACCTAA) | 0.101
43 | GATGGCCCTTGGGTTCTAACCTGTTGCTT (site GATGGCCCTAA) | 0.528
44 | GATGTAACTTGGGTTCTAACCTGTTGCCT (site GAAGTAACTAG) | 0.191
45 | GATGTAACTTGGGTTCTAACCTGTTGCCT (site GACGTAACTAG) | 0.101
46 | GATGTAACTTGGGTTCTAACCTGTTGCCT (site GAGGTAACTAG) | 0.0797
47 | GATGTAACTTGGGTTCTAACCTGTTGCCT (site GATGTAACTAG) | 0.956
48 | GATTCTACTTGGGTTCTAACCTGTTGCGT (site CATGCTACTAC) | 0.0209
49 | GATTCTACTTGGGTTCTAACCTGTTGCGT (site GATTCTACTAC) | 0.0518
50 | GATTCTCCTTGGGTTCTAACCTGTTGCGT (site GATTCTCCTAA) | 0.0946
51 | GATTCTCCTTGGGTTCTAACCTGTTGCGT (site GATTCTCCTAC) | 0.541
52 | GATTCTCCTTGGGTTCTAACCTGTTGCGT (site GATTCTCCTAG) | 0.141
53 | GATTCTCCTTGGGTTCTAACCTGTTGCGT (site GATTCTCCTAT) | 0.118
54 | GATTCTCCTTGGGTTCTAACCTGTTGCTT (site GATTCTCCTAA) | 0.0943
55 | GATTCTCCTTGGGTTCTAACCTGTTGCTT (site GATTCTCCTAC) | 0.0499
56 | GATTCTCCTTGGGTTCTAACCTGTTGCTT (site GATTCTCCTAG) | 0.0621
57 | GATTCTCCTTGGGTTCTAACCTGTTGCTT (site GATTCTCCTAT) | 0.194
58 | GCAAATCCTTGGGTTCTAACCTGTTGCCT (site GCAAATCCTAG) | 0.873
59 | GCAAATCCTTGGGTTCTAACCTGTTGCCT (site GCACATCCTAC) | 0.108
